Measurements: patent publication US4409325A, “Valproate conjugation using dicarbonyls” (Syva Company, priority 1981, dated 1983)

Key:
Antivalproate = experiment: Homogeneous enzyme immunoassay for valproate (absorbance difference); type: biochemical; conditions: difference in absorbance×2.667, 340 mn, 10 to 40 seconds
Description: As previously indicated, the antibodies and enzyme reagents prepared in accordance with the subject invention find particular use in immunoassays for the determination of valproate. A description of the method for carrying out the immunoassay, which is a homogeneous enzyme immunoassay, may be found in U.S. Pat. No. 3,817,837. The method involves combining the enzyme conjugate, the unknown sample suspected of containing valproate, an antibody for valproate in an aqueous buffered medium at temperatures in the range of about 10° to 50°, more usually from about 20° to 40° C., and determining the enzyme activity as compared to the enzyme activity of an assay medium having a known amount of valproate.
In carrying out the assay, a Gilford 300 N microsample spectrophotometer is employed with a Thermocuvette with a flow cell. All readings are made at 340 mn. The following solutions are prepared as reagents for use in the assay.
Sufficient enzyme conjugate to give
a maximum rate of ΔOD equal to
Antivalproate optimized for assay
The protocol employed for carrying out an assay is as follows: A sample, 50 μl is drawn up into a diluter and dispensed with 250 μl of the assay buffer into a one ml Croan cup. A 50 μl aliquot of the diluted sample is drawn up and dispensed with a 250 μl portion of assay buffer into a second Croan cup. Into the second Croan cup is introduced 50 μl of the antibody reagent with 250 μl of the assay buffer, followed by the addition of 50 μl of the enzyme reagent and 250 μl of the assay buffer. Immediately after the enzyme addition, the entire sample is aspirated into the flow cell. After 10 seconds, a first reading is taken, followed by a second reading, after a 40 second interval from aspiration. The results are reported as the difference in absorbance×2.667.

[1] = antiepileptic; cited from earlier work
[2] = anticonvulsant use; cited from earlier work
[3] = humans, cited from earlier work

Row | Structure (SMILES) | ΔOD (Antivalproate; valproate 25 μg/ml) | ΔOD (Antivalproate; valproate 50 μg/ml) | ΔOD (Antivalproate; valproate 75 μg/ml) | ΔOD (Antivalproate; valproate 100 μg/ml) | ΔOD (Antivalproate; valproate 150 μg/ml) | minimum level in serum required for therapeutic efficacy [1] [µg/mL] | toxicity [2] | metabolism [3] | excretion ([3]; urine)
1 | CCCC(CCC)C(=O)[O-].[Na+] [Valproate, sodium di-n-propylacetate] | 630 | 646 | 666 | 682 | 714 | ≥ 50 | low toxicity | – | –
2 | CCCC(CCC)C(=O)O [valproic acid, 2-propylpentanoic acid] | – | – | – | – | – | – | – | metabolized in humans via oxidation predominantly at the positions β and ω to the carboxylic acid | eventually excreted in urine as the free acids or via glucuronide formation
